Measurements from ChEMBL document CHEMBL1201862, “PubChem BioAssay data set” (2004).
Where “and” joins values, the source holds several entries; their conditions need not be identical. Identical values can stand only once. Calls of active or inactive are those of the source.

Columns and labels:
[1] = biological target: T1, RNA-binding protein pos-1 (Caenorhabditis elegans, UniProt G5EF15); test: disruptors of C. elegans POS-1 RNA interaction – biochemical, fluorescence polarization, dose response (AID 1964);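 also: purified POS-1 fused to maltose binding protein made in E. coli; potency of compounds blocking POS-1 binding to fluorescent RNA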
T1 sequence (G5EF15 whole entry): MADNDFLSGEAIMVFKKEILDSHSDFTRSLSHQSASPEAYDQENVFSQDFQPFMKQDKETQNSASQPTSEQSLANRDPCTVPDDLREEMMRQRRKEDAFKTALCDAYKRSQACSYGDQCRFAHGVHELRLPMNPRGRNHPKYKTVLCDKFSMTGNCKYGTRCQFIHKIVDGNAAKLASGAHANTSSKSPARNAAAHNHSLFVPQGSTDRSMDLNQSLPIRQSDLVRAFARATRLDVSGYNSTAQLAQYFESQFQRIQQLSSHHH

[2] = biological target: T2, Zinc finger protein mex-5 (Caenorhabditis elegans, UniProt Q9XUB2); test: potency of MEX-5 RNA-binding blockers – biochemical, C. elegans, fluorescence polarization, dose response (AID 1960)
T2 sequence (Q9XUB2 whole entry): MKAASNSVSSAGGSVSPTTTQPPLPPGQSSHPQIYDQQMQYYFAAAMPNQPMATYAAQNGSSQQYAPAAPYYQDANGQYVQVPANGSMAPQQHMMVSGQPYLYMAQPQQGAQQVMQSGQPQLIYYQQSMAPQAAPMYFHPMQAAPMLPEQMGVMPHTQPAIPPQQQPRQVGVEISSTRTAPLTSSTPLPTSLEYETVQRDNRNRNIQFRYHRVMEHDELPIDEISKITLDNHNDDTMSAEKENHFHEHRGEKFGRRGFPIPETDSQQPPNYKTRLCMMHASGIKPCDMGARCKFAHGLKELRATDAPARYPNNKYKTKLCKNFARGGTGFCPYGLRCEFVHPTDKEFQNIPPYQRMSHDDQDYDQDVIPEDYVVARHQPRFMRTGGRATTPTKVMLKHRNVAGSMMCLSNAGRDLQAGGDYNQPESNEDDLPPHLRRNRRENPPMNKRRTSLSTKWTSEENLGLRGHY

Cysteine protease ATG4B = biological target: T3, Cysteine protease ATG4B (Homo sapiens, UniProt Q9Y4P1); type: functional;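 also: Fluorescence-based dose-response confirmation assay measuring inhibition of ATG4B activity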
T3 sequence (Q9Y4P1 whole entry): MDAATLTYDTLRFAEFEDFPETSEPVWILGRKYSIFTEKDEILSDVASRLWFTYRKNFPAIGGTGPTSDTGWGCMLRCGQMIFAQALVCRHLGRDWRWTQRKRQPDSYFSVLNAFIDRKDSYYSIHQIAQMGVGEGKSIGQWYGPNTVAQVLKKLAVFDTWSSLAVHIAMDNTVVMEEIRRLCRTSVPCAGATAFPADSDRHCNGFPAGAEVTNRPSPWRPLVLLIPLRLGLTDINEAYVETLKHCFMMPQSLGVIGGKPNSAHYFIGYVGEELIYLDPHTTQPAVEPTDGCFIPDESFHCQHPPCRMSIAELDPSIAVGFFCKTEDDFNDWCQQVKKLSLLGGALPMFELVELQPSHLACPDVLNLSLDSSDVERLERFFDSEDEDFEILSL

Phospholipase A2 = Phospholipase A2 (Homo sapiens, UniProt P04054); type: functional;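 also: confirmatory dose-response counterscreen on phospholipase A2, testing hits that came from an ultra-high-throughput screen for ATG4B inhibitors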
Chain of Phospholipase A2 (P04054 whole entry): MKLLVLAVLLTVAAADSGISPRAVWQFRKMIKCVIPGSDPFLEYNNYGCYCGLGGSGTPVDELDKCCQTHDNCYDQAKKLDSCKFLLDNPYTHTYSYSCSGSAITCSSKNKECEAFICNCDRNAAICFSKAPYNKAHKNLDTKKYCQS

Aminopeptidase N = biological target: T4, Aminopeptidase N (Plasmodium falciparum FcB1/Columbia, UniProt O96935); test: malaria alanyl aminopeptidase activity blockers – biochemical, fluorogenic H-Leu-NHMec substrate, 1536-well (AID 1445); parameters: species or system Plasmodium falciparum 3D7, 3D7
T4 sequence (O96935 whole entry): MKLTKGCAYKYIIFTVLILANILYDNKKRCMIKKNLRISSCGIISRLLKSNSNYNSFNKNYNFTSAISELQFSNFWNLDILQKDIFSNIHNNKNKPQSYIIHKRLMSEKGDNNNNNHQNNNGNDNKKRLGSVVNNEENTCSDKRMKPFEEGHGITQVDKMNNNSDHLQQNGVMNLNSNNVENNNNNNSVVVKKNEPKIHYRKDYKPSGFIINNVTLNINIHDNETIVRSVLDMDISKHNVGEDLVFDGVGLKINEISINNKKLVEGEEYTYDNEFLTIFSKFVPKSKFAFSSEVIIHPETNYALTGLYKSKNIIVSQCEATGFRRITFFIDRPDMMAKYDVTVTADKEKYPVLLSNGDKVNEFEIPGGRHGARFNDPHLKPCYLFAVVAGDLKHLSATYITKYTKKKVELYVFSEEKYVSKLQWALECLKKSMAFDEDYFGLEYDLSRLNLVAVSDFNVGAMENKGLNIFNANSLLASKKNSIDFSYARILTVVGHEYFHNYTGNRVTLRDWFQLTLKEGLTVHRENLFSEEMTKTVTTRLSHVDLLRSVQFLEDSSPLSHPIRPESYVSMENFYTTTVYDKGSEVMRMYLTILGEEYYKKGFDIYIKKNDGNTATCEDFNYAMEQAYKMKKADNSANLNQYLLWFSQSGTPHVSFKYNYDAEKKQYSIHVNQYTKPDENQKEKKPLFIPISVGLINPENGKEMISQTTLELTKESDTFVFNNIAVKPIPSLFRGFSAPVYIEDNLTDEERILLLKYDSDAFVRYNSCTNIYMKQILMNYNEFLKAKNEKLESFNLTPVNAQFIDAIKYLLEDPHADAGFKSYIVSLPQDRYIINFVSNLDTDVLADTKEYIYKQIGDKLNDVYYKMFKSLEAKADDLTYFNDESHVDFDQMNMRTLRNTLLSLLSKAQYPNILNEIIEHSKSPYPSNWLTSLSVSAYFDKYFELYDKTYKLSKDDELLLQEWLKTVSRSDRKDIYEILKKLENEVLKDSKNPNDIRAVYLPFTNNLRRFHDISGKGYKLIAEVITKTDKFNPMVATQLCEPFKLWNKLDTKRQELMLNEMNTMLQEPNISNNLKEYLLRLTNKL

[3] = Trypanosoma cruzi growth suppression in host cells – NIH3T3 host cells, beta-gal luminescence, confirmation (AID 2044); type: functional, cell-based;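 also: intracellular parasites grown in NIH/3T3 mouse fibroblasts as host cells; luminescent beta-galactosidase reporter signal from transgenic T. cruzi replicating inside host cells; inhibitors lower the luminescence signal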
[4] = NIH3T3 cell viability loss – ATP luminescence, mouse fibroblasts, counter-screen, dose response (AID 2010); type: functional, cell-based;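 also: cells exposed to compound for about 90 hours before reading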
[5] = NIH-3T3 fibroblast cytotoxicity, dose response, cytotoxicity control, cell-based, fluorescence, Alamar Blue, secondary assay (AID 2327); type: functional;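 also: NIH-3T3 mouse fibroblasts cultured with fluconazole at 8 µg/mL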
Leucine aminopeptidase = biological target: T5, Leucine aminopeptidase (Plasmodium falciparum 3D7, UniProt Q8IL11); test: P. falciparum M17LAP inhibitors, primary screen, biochemical, fluorogenic H-Leu-NHMec substrate, 1536-well (AID 1619); type: functional
T5 sequence (Q8IL11 whole entry): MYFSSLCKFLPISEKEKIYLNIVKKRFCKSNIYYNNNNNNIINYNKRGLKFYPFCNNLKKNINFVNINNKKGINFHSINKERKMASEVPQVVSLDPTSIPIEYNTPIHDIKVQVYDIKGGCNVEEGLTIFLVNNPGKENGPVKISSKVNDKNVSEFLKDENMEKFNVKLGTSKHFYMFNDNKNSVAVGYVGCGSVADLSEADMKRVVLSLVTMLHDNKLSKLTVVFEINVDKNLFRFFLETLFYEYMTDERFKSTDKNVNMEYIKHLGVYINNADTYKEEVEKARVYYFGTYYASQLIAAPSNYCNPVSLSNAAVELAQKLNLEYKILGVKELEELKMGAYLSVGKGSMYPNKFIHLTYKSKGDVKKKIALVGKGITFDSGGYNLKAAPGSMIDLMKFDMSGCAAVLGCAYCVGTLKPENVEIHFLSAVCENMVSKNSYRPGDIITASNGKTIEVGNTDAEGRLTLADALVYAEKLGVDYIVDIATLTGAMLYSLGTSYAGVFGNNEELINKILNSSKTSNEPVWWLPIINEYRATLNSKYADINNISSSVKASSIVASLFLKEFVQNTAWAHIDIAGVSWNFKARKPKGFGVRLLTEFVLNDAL

[6] = fluconazole-exposed Candida albicans growth modulators – fluorescence, retest, confirmation (AID 2467); type: functional, cell-based
Genome polyprotein = Genome polyprotein (dengue virus type 2, UniProt P29990); test: flavivirus cap methylation enzyme inhibition – biochemical, confirmation dose response, primary screen (AID 588689); type: functional
Chain of Genome polyprotein (P29990 2492-3391 limits assumed): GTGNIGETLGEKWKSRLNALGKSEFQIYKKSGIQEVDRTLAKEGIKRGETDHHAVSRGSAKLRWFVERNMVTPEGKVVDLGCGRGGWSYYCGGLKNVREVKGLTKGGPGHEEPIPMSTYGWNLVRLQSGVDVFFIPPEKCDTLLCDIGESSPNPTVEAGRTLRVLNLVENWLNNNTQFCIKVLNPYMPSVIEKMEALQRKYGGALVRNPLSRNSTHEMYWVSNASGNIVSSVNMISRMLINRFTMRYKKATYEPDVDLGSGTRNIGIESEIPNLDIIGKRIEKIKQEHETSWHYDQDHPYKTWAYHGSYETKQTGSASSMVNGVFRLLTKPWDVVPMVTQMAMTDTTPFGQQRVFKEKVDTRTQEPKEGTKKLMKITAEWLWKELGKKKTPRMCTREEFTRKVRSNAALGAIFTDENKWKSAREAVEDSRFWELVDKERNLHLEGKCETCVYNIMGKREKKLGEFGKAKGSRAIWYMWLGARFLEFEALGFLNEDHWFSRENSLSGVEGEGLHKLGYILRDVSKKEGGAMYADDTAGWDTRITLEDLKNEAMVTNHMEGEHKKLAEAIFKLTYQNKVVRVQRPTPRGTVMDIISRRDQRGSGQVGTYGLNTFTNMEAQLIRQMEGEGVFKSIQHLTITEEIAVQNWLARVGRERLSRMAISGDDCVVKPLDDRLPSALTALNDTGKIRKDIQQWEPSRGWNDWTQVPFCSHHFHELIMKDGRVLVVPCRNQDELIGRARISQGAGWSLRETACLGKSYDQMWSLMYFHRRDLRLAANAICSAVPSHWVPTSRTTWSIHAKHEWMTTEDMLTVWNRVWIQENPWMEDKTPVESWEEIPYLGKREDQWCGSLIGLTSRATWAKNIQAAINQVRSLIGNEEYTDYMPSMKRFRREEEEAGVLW

[7] = viability of uninfected HEp-2 cells – cell-based, HTS, cytotoxicity control for RSV inhibitor project, dose response (AID 2410); type: functional; conditions: human respiratory syncytial virus
Cytochrome P450 3A4 = Cytochrome P450 3A4 (Homo sapiens, UniProt P08684); conditions: Potency;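 also: confirmatory qHTS run detecting inhibitors and substrates of CYP3A4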
Chain of Cytochrome P450 3A4 (P08684 whole entry): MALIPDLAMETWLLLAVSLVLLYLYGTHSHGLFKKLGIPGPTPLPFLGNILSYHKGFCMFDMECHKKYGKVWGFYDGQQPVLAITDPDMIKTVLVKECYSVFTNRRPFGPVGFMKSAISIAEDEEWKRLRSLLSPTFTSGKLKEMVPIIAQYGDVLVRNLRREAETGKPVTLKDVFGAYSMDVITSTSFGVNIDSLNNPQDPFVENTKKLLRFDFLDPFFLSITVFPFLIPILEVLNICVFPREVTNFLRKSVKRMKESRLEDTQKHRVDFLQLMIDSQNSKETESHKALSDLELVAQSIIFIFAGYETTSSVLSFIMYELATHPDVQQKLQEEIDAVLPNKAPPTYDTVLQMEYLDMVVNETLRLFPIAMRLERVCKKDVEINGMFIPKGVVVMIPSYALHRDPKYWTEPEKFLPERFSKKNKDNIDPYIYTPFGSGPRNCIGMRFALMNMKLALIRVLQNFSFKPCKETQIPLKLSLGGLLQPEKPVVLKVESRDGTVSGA

[8] = Luminescence Cell-Based Dose Retest to Confirm Inhibitors of Cancer Stem Cells. [Related pubchem assays (depositor defined):AID2717, AID2721]; type: functional; conditions: Homo sapiens
INS1 = test: INS-1E survival protection against cytokine death – cell-based, luminescence, retest, dose response (AID 449756); type: functional; conditions: Rattus norvegicus;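 also: cell death triggered by IL-1 beta plus TNF-alpha plus IFN-gamma mixture; protective hits raise ATP signal compared with cytokine alone wells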

For O=C1NC(=O)N(c2ccc(Cl)cc2)C(=O)/C1=C/NCCN1CCCCC1, which EC50 [1] is on record?
The EC50 was > 300 µM (not active).

And the EC50 [2]?
Its EC50 is > 300 µM (not active).

With O=C(COc1ccccc1-c1ccccc1)NCc1cccc(Cl)c1 as the compound, how does the IC50 (Cysteine protease ATG4B) read?
The IC50 was 11.4 µM (active).

What about the IC50 (Phospholipase A2) of the same compound?
Its IC50 is 7.72 µM (active).

For O=C(COc1ccccc1/C=C1\SC(=O)NC1=O)Nc1ccc(F)cc1, which IC50 (Aminopeptidase N) is on record?
Its IC50 is 27.5 µM (active).

Which EC50 [3] does the source give for CCOc1ccc(NCc2ccccc2OCc2cccc(F)c2)cc1 here?
Its EC50 is 1.29 µM (active).

What about the EC50 [4] of the same compound?
The EC50 was > 60 µM (not active).

And the IC50 (Cysteine protease ATG4B)?
The IC50 was 8.88 µM (active).

And the IC50 (Phospholipase A2)?
The IC50 was 5.3 µM (active).

For O=C(O)CSc1nc(-c2ccc(Cl)cc2)nc2c1oc1ccccc12, which EC50 [5] is on record?
Its EC50 is 6.56 µM (active).

What about the IC50 (Leucine aminopeptidase) of the same compound?
Its IC50 is 34.6 µM (active).

What about the IC50 (Aminopeptidase N) of the same compound?
The IC50 was 82.7 µM (active).

What about the EC50 [6] of the same compound?
The EC50 was 1.93 µM (active).

And the IC50 (Genome polyprotein)?
The IC50 was 40.6 µM (active).

Which CC50 [7] does the source give for O=C1CCCC2=C1C(c1ccccc1)C1C(=O)c3ccccc3C1=N2 (stereo not given) here?
The CC50 was > 50 µM (active).

What about the IC50 (cells) of the same compound?
The IC50 was 39.8 µM (active).

For COc1ccc(/C=C/C(=O)NCc2nc3ccccc3[nH]2)cc1OC, which IC50 (cells) is on record?
Its IC50 is 30.6 µM (active).

Which AC50 (Cytochrome P450 3A4) does the source give for COC(=O)C1=C(C)N(Cc2ccccc2)C2=C3C(=O)N(c4ccccc4)C(=O)C3[C@@](O)(C(=O)OC)C(=O)N2C1c1ccccc1 (stereo not given in full) here?
The AC50 was 3.98 µM (inconclusive) and 3.16 µM (inconclusive).

Which EC50 [1] does the source give for Cc1c(Cl)cccc1N=C(S)N1CCN(C(=O)C2CCCO2)CC1 (stereo not given) here?
The EC50 was > 300 µM (not active).

What about the EC50 [2] of the same compound?
Its EC50 is > 300 µM (not active).

Which IC50 (Aminopeptidase N) does the source give for Cc1nc2ccccc2c(=O)n1NC(=O)c1ccco1 here?
The IC50 was 70.7 µM (active).

Which results are given for N#CCSc1nc2ccccc2c2nc3ccccc3n12?
CC50 [7]: 7.62 µM (active); AC50 [8]: 3.31 µM (active); AC50 (INS1): 8.38 µM (active); IC50 (cells): 9.82 µM (active)
